Experimental data from publication PMC5823406, “Vehicle development, pharmacokinetics and toxicity of the anti-invasive agent 4-fluoro-3’,4’,5’-trimethoxychalcone in rodents” (PLoS ONE, 2018).
Read-outs that look alike come from different tables or passages of the source.

Assay: Whole-blood PK study (IV, IP and PO) in male CD-1 mice
Format: in vivo, mouse
Conditions: for Bioavailability: read-out: Bioavailability; for cmax: read-out: cmax; for concentration at 0.5 h: 0.50 h; for Vd: read-out: Vss; for Tmax: CD-1, whole blood
Description: Nine male CD-1 mice (25–35 g) were obtained from Hilltop Labs. Duration of acclimation was at least two days. Animals were randomly assigned to the three dose groups (IV, PO, intraperitoneal (IP), N = 3 per group), healthy at the start of the trial, housed one per cage (conventional type with wood chip bedding material), identified by a cage label and maintained in a well-controlled temperature (20–24 C) and humidity (30%-70%) environment with 12 h light/dark cycles. Animals intended for IV dosing were fitted with a jugular vein cannula (JVC, procedure see rat plasma PK study above). The study was not blinded. Food was withheld from the animals for a minimum of 12 h prior to test article administration until 4 h post-dose. Water was offered ad libitum.
C16 was dosed in cassette together with two undisclosed compounds of similar chemical structure. The dose of each test article was 1 mg/kg (IV, JVC, 0.5 mg/mL) or 10 mg/kg (IP and PO gavage, 2 mg/mL). Two respective dosing solutions were prepared (protocol see above) containing 0.5 and 2 mg/mL of C16 (and equal concentrations of the other two test articles) in 20% DMSO / 10% (DMSO / Cremophor EL 1:1) / 70% H2O. Formulations were prepared one day prior to dosing and stored at 4 °C.
Blood samples were taken pre-dose and 5 (except for PO administration), 15, 30 min, 1, 2, 4, and 8 h after dosing. The samples were collected via the tail vein or by cardiac puncture (8 h time point). Blood (25 μL) was collected and pipetted into a tube with 25 μL heparinized water (1 μL of sodium heparin (1000 unit/ml) + 24 μL water) within 30 seconds of collection. The sample was pipetted up and down five times, immediately frozen on dry ice and stored at -60°C to -80°C until analyzed. No necropsy was performed.
Pharmacokinetic parameters were estimated by a non-compartmental model using WinNonlin (v5.2.1 or higher) software. The maximum plasma/blood concentrations (c0) after IV dosing were estimated by extrapolation of the first two time points back to t = 0. The maximum blood concentration (cmax) and the time to reach maximum blood drug concentration (tmax) after PO dosing were derived from the data. The area under the time-concentration curve (AUC) was calculated using the linear trapezoidal rule with calculation to the last quantifiable data point, and with extrapolation to infinity if applicable. Plasma/blood half-life (t1/2) was calculated from 0.693/slope of the terminal elimination phase. Mean residence time (MRT) was calculated by dividing the area under the moment curve (AUMC) by the AUC. Clearance (CL) was calculated from dose/AUC. Steady-state volume of distribution (Vss) was calculated from CL*MRT. Bioavailability was determined by dividing the individual dose-normalized PO AUC values by the respective average dose-normalized intravenous (IV) AUC value. Samples that were below the limit of quantification were not used in the calculation of averages, and were treated as zero for pharmacokinetic data analysis. […]
Sprague-Dawley rats at 10 mg/kg (in 100% DMSO). […]
c Bioavailability determined by dividing the individual dose normalized oral AUC last by the average dose normalized intravenous AUC last value. […]
The dosing solution was prepared as a cassette to contain all three test articles in the same solutions using a vehicle
consisting of 20% DMSO/10% (DMSO/Cremophor EL 1:1)/70% Milli-Q water.
Individual blood concentrations and pharmacokinetic parameters are shown in Table H through Table J. All data are
expressed as ng/mL of the free drug. Samples that were below the limit of quantification were not used in the
calculation of averages. Concentration versus time data are plotted in Fig D through Fig F.
Table H. Individual blood concentrations (ng/mL) and PK parameters for C16 after IV administration in male CD-1 mice at 1 mg/kg.
t (h) 0 (pre-dose) BLOQ BLOQ BLOQ
(1 picture or pasted object on this page, not shown here)

[1] = male, CD-1, mouse, whole blood, ip, 10 mg/kg, male CD-1 mouse, IP 10 mg/kg, average
[2] = male, CD-1, mouse, whole blood, ip, 10 mg/kg, mouse blood, IP 10 mg/kg, individual animals 4-6
[3] = male, CD-1, mouse, whole blood, ip, 10 mg/kg, mouse, IP 10 mg/kg, animals 4-6, read-out: Individual blood concentration
[4] = male, CD-1, mouse, whole blood, ip, 10 mg/kg, whole blood, male CD-1 mouse, IP 10 mg/kg, average
[5] = male, CD-1, mouse, whole blood, iv, 1 mg/kg, male CD-1 mouse, IV 1 mg/kg, average
[6] = male, CD-1, mouse, whole blood, iv, 1 mg/kg, mouse blood, IV 1 mg/kg, individual animals 1-3
[7] = male, CD-1, mouse, whole blood, iv, 1 mg/kg, mouse, IV 1 mg/kg, animals 1-3, read-out: Individual blood concentration
[8] = male, CD-1, mouse, whole blood, po, 10 mg/kg, male CD-1 mouse, PO 10 mg/kg, average
[9] = male, CD-1, mouse, whole blood, po, 10 mg/kg, mouse blood, PO 10 mg/kg, individual animals 7-9
[10] = male, CD-1, mouse, whole blood, po, 10 mg/kg, whole blood, male CD-1 mouse, PO 10 mg/kg, average

Question: With `COc1cc(C(=O)/C=C/c2ccc(F)cc2)cc(OC)c1OC` [C16, 4-fluoro-3’,4’,5’-trimethoxychalcone] as the molecule, how does the “time of maximum blood concentration” value (male CD-1 mouse, IP 10 mg/kg) read?
Answer: The value was 15 min.

Question: And the “time of maximum blood concentration” value (male CD-1 mouse, PO 10 mg/kg)?
Answer: The value was 15 min.

Question: What about the AUC(0-inf) [1] of the same molecule?
Answer: The AUC(0-inf) was 0.114 µg·h/mL.

Question: And the AUC(0-t) [1]?
Answer: Its AUC(0-t) is 0.109 µg·h/mL.

Question: And the MRT last [1]?
Answer: The MRT last was 48 min.

Question: What about the half-life [1] of the same molecule?
Answer: The half-life was 48 min.

Question: What about the AUC(0-inf) [2] of the same molecule?
Answer: Its AUC(0-inf) is 0.101 µg·h/mL.

Question: And the AUC(0-t) [2]?
Answer: The AUC(0-t) was 0.0992 µg·h/mL.

Question: What about the MRT last [2] of the same molecule?
Answer: Its MRT last is 59.5 min.

Question: What about the half-life [2] of the same molecule?
Answer: The half-life was 38.2 min.

Question: And the Bioavailability [2]?
Answer: Its Bioavailability is 49.7%.

Question: And the cmax [2]?
Answer: The cmax was 90.3 ng/mL.

Question: What about the concentration at 0.25 h [3] of the same molecule?
Answer: Its concentration at 0.25 h is 0.0903 µg/mL.

Question: And the concentration at 0.5 h [3]?
Answer: Its concentration at 0.5 h is 0.0482 µg/mL.

Question: What about the concentration at 1 h [3] of the same molecule?
Answer: The concentration at 1 h was 0.0492 µg/mL.

Question: What about the concentration at 2 h [3] of the same molecule?
Answer: The concentration at 2 h was 0.0134 µg/mL.

Question: What about the Bioavailability [4] of the same molecule?
Answer: Its Bioavailability is 54.7%.

Question: What about the cmax [4] of the same molecule?
Answer: Its cmax is 107 ng/mL.

Question: What about the AUC(0-inf) [5] of the same molecule?
Answer: Its AUC(0-inf) is 0.0224 µg·h/mL.

Question: And the AUC(0-t) [5]?
Answer: The AUC(0-t) was 0.02 µg·h/mL.

Question: What about the MRT last [5] of the same molecule?
Answer: The MRT last was 26 min.

Question: And the clearance [5]?
Answer: Its clearance is 45 L/h/kg.

Question: And the half-life [5]?
Answer: The half-life was 44.8 min.

Question: And the C0 (male, CD-1, mouse, whole blood, iv, 1 mg/kg, male CD-1 mouse, IV 1 mg/kg, average, extrapolated to t = 0)?
Answer: Its C0 is 0.076 µg/mL.

Question: And the AUC(0-inf) [6]?
Answer: Its AUC(0-inf) is 0.0229 µg·h/mL.

Question: And the AUC(0-t) [6]?
Answer: The AUC(0-t) was 0.0202 µg·h/mL.

Question: What about the MRT last [6] of the same molecule?
Answer: The MRT last was 25.6 min.

Question: What about the clearance [6] of the same molecule?
Answer: Its clearance is 43.6 L/h/kg.

Question: What about the half-life [6] of the same molecule?
Answer: The half-life was 49.4 min.

Question: What about the Vd [6] of the same molecule?
Answer: The Vd was 32.8 L/kg.

Question: What about the concentration at 0.083 h (male, CD-1, mouse, whole blood, iv, 1 mg/kg, mouse, IV 1 mg/kg, 0.083 h, animals 1-3, read-out: Individual blood concentration) of the same molecule?
Answer: The concentration at 0.083 h was 0.0464 µg/mL.

Question: And the concentration at 0.25 h [7]?
Answer: The concentration at 0.25 h was 0.0173 µg/mL.

Question: What about the concentration at 0.5 h [7] of the same molecule?
Answer: Its concentration at 0.5 h is 0.0084 µg/mL.

Question: What about the concentration at 1 h [7] of the same molecule?
Answer: The concentration at 1 h was 0.0045 µg/mL.

Question: What about the concentration at 2 h [7] of the same molecule?
Answer: The concentration at 2 h was 0.00228 µg/mL.

Question: What about the Vd (male, CD-1, mouse, whole blood, iv, 1 mg/kg, whole blood, male CD-1 mouse, IV 1 mg/kg, average) of the same molecule?
Answer: Its Vd is 32.6 L/kg.

Question: What about the AUC(0-t) [8] of the same molecule?
Answer: The AUC(0-t) was 0.0209 µg·h/mL.

Question: What about the MRT last [8] of the same molecule?
Answer: The MRT last was 82.8 min.

Question: And the half-life (male, CD-1, mouse, whole blood, po, 10 mg/kg, mouse blood, PO 10 mg/kg, individual animal 7)?
Answer: The half-life was 176 min.

Question: What about the AUC(0-t) [9] of the same molecule?
Answer: Its AUC(0-t) is 0.0232 µg·h/mL.

Question: And the Bioavailability [9]?
Answer: Its Bioavailability is 11.6%.

Question: What about the Bioavailability [10] of the same molecule?
Answer: The Bioavailability was 10.5%.

Question: And the cmax [10]?
Answer: Its cmax is 12.5 ng/mL.

Question: What about the Tmax (male, mouse blood, IP 10 mg/kg, individual animals 4-6) of the same molecule?
Answer: Its Tmax is 15 min.

Question: And the Tmax (male, mouse blood, IV 1 mg/kg, individual animals 1-3)?
Answer: Its Tmax is 0 min.
